molecular target: KRAS G12C and cRAF (Ras-binding domain) interaction (Homo sapiens (Human), UniProt P01116, C118S/C51S/C80L/G12C); assay: Inhibition of KRAS G12C and cRAF binding (AlphaScreen); settings: additional exemplary compounds; KRAS G12C and cRAF binding; read-out: RAF1 RBD IC50
Description: Compounds were diluted in 100% DMSO and each compound concentration was spotted at 200 nl/well onto low volume, white 384 well plates. […] Plates were incubated for 19-20 hours. A mixture of RBD and the AlphaScreen streptavidin donor and glutathione acceptor beads diluted in 25 mM Hepes, pH 7.4, 150 mM NaCl, 5 mM MgCl2, 0.01% TritonX-100 and 2% DMSO was then added at 10 ul/well and incubated for 60-90 minutes before the samples were read for emission at 570 nm after excitation of the donor beads at 680 nm. All incubations were performed at room temperature. […] IC50s were determined using nonlinear regression fit of [inhibitor]vs. response (4 parameters). […]

KRAS G12C and cRAF (Ras-binding domain) interaction, sequence (P01116 other isoform, or with tags, fused parts or gaps G12C/C51S/C80L/C118S): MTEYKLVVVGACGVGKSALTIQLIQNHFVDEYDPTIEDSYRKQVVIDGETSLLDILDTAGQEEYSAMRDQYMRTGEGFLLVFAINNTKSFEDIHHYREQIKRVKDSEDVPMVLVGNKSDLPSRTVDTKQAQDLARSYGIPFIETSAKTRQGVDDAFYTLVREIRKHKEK

IC50 [µM] | Structure (SMILES)
0.01 to 0.1 | CN(C)C/C=C/C(=O)N1CC[C@@H](N(C)c2nc(OC[C@@]34CCCN3C[C@H](F)C4)nc3c2CCN(c2cccc4ccc(F)c(Cl)c24)C3)C1
> 0.5 | C=CC(=O)N1C[C@H](N(C)c2nc(OCC34CCCN3CCC4)nc3c2CCN(c2cccc4cccc(Cl)c24)C3)C[C@H]1C
> 0.5 | C=CC(=O)N1CCC[C@@H](N(C)c2nc(OCC34CCCN3CCC4)nc3c(F)c(-c4cccc5cccc(Cl)c45)ncc23)C1
> 0.5 | C=CC(=O)N1CC(N(C)c2nc(OCC34CCCN3CCC4)nc3c2CCN(c2cccc4cccc(Cl)c24)C3)C1
> 0.5 | C=CC(=O)N1CC(N(C)c2nc(OCC34CCCN3CCC4)nc3c(F)c(-c4cccc5cccc(Cl)c45)ncc23)C1
0.1 to 0.5 | COC/C=C/S(=O)(=O)CCN(C)c1nc(OCC23CCCN2CCC3)nc2c1CCN(c1cccc3cccc(Cl)c13)C2
> 0.5 | C/C=C/C(=O)CCN(C)c1nc(OC[C@@H]2CCCN2C)nc2c1CCN(c1cccc3ccccc13)C2
> 0.5 | C=CC(=O)N1CC(N(C)c2nc(OC[C@@]34CCCN3C[C@H](F)C4)nc3c2CCN(c2cccc4cccc(Cl)c24)C3)C1
> 0.5 | C=CC(=O)C[C@H](C)N(C)c1nc(OC[C@@H]2CCCN2C)nc2c1CCN(c1cccc3ccccc13)C2
0.01 to 0.1 | C=CC(=O)N1CC(CN(C)c2nc(OCC34CCCN3CCC4)nc3c(F)c(-c4cccc5cccc(Cl)c45)ncc23)C1
> 0.5 | C=CC(=O)[C@H](C)CN(C)c1nc(OC[C@@H]2CCCN2C)nc2c1CCN(c1cccc3ccccc13)C2
> 0.5 | CN(c1nc(OCC23CCCN2CCC3)nc2c1CCN(c1cccc3cccc(Cl)c13)C2)[C@@H]1CCN(C(=O)/C=C/C2(C)COC2)C1
0.01 to 0.1 | C=CC(=O)[C@@H](C)CN(C)c1nc(OC[C@@H]2CCCN2C)nc2c1CCN(c1cccc3ccccc13)C2
0.01 to 0.1 | CCN(CC)C/C=C/S(=O)(=O)CCN(C)c1nc(OC[C@@H]2CCCN2C)nc2c(F)c(-c3cccc4cccc(Cl)c34)ncc12
> 0.5 | CCOC/C=C/S(=O)(=O)CCN(C)c1nc(OC[C@@H]2CCCN2C)nc2c(F)c(-c3cccc4cccc(Cl)c34)ncc12
< 0.01 | CCN(CC)C/C=C/S(=O)(=O)CCN(C)c1nc(OC[C@@]23CCCN2C[C@H](F)C3)nc2c1CCN(c1cccc3cccc(Cl)c13)C2
> 0.5 | C=CC(=O)N1C[C@H](N(C)c2nc(OCC34CCCN3CCC4)nc3c(F)c(-c4cccc5cccc(Cl)c45)ncc23)C[C@H]1C
> 0.5 | C=CC(=O)N1CCC[C@@H](N(C)c2nc(OCC34CCCN3CCC4)nc3c2CCN(c2cccc4cccc(Cl)c24)C3)C1
> 0.5 | C=CC(=O)N1C[C@H](N(C)c2nc(OCC34CCCN3CCC4)nc3c2CCN(c2cccc4cccc(Cl)c24)C3)[C@H]1C
> 0.5 | C=CC(=O)N1C[C@H](N(C)c2nc(OCC34CCCN3CCC4)nc3c(F)c(-c4cccc5cccc(Cl)c45)ncc23)[C@H]1C
> 0.5 | CN(CCS(=O)(=O)/C=C/CC1CC1)c1nc(OCC23CCCN2CCC3)nc2c1CCN(c1cccc3cccc(Cl)c13)C2
> 0.5 | CN(CCS(=O)(=O)/C=C/CC1CC1)c1nc(OC[C@@H]2CCCN2C)nc2c(F)c(-c3cccc4cccc(Cl)c34)ncc12

IC50 [µM] | Structure (SMILES)
> 0.5 | C=CC(=O)N1CCC(N(C)c2nc(OCC34CCCN3CCC4)nc3c2CCN(c2cccc4cccc(Cl)c24)C3)C1CC#N (centres unmarked)
0.1 to 0.5 | C=CC(=O)N1C[C@H](N(C)c2nc(OCC34CCCN3CCC4)nc3c2CCN(c2cccc4cccc(Cl)c24)C3)CC1C#N (some centres unmarked)
0.01 to 0.1 | C=CC(=O)N1CC[C@@H](N(C)c2nc(OCC34CCCN3CCC4)nc3c(F)c(-c4cccc5ccc(F)c(Cl)c45)ncc23)C1
0.01 to 0.1 | C=CC(=O)N1CC[C@@H](N(C)c2nc(OC[C@@]34CCCN3C[C@H](F)C4)nc3c(F)c(-c4cccc5ccc(F)c(Cl)c45)ncc23)C1
> 0.5 | C=CC(=O)N1C[C@@H](N(C)c2nc(OCC34CCCN3CCC4)nc3c(F)c(-c4cccc5cccc(Cl)c45)ncc23)C[C@@H]1CC#N
0.01 to 0.1 | CN(C)C/C=C/C(=O)N1CC[C@@H](N(C)c2nc(OC[C@@]34CCCN3C[C@H](F)C4)nc3c(F)c(-c4cccc5ccc(F)c(Cl)c45)ncc23)C1
> 0.5 | C=CC(=O)N1CC[C@H]2[C@@H]1CCN2c1nc(OCC23CCCN2CCC3)nc2c1CCN(c1cccc3cccc(Cl)c13)C2
> 0.5 | C=CC(=O)N1CC[C@H]2[C@@H]1CCN2c1nc(OC[C@@]23CCCN2C[C@H](F)C3)nc2c1CCN(c1cccc3cccc(Cl)c13)C2
> 0.5 | C=CC(=O)N1CC[C@H]2[C@H]1CCN2c1nc(OCC23CCCN2CCC3)nc2c1CCN(c1cccc3cccc(Cl)c13)C2
> 0.5 | C=CC(=O)N1CC[C@H]2[C@H]1CCN2c1nc(OC[C@@]23CCCN2C[C@H](F)C3)nc2c1CCN(c1cccc3cccc(Cl)c13)C2
0.01 to 0.1 | C=CS(=O)(=O)[C@H]1CC[C@@H](N(C)c2nc(OCC34CCCN3CCC4)nc3c2CCN(c2cccc4cccc(Cl)c24)C3)C1
0.01 to 0.1 | C=CC(=O)CCN(C)c1nc(OCC2CCN2C)nc2c1CCN(c1cccc3cccc(Cl)c13)C2 (centres unmarked)
> 0.5 | C=CS(=O)(=O)[C@@H]1CC[C@H](N(C)c2nc(OCC34CCCN3CCC4)nc3c2CCN(c2cccc4cccc(Cl)c24)C3)C1
0.01 to 0.1 | CN(c1nc(OCC23CCCN2CCC3)nc2c(F)c(-c3cccc4ccc(F)c(Cl)c34)ncc12)[C@@H]1CCN(C#N)C1
0.01 to 0.1 | CN(C)C/C=C/C(=O)N1CC[C@@H](N(C)c2nc(OC[C@@H]3CCCN3C)nc3c(F)c(-c4cccc5ccc(F)c(Cl)c45)ncc23)C1
0.01 to 0.1 | CN(C)C/C=C/C(=O)N1CC[C@@H](N(C)c2nc(OCC34CCCN3CCC4)nc3c(F)c(-c4cccc5ccc(F)c(Cl)c45)ncc23)C1
0.1 to 0.5 | C=CC(=O)N1C[C@H](N(C)c2nc(OCC34CCCN3CCC4)nc3c2CCN(c2cccc4cccc(Cl)c24)C3)C[C@@H]1C#N
0.01 to 0.1 | C=CC(=O)N1C[C@H](N(C)c2nc(OCC34CCCN3CCC4)nc3c2CCN(c2cccc4cccc(Cl)c24)C3)C[C@H]1C#N
0.01 to 0.1 | C=CC(=O)N1CC(CN(C)c2nc(OC[C@@]34CCCN3C[C@H](F)C4)nc3c(F)c(-c4cccc5ccc(F)c(Cl)c45)ncc23)C1
0.1 to 0.5 | N#CN1CC[C@H]2[C@H]1CCN2c1nc(OC[C@@]23CCCN2C[C@H](F)C3)nc2c(F)c(-c3cccc4cccc(Cl)c34)ncc12
> 0.5 | N#CN1CC[C@H]2[C@@H]1CCN2c1nc(OC[C@@]23CCCN2C[C@H](F)C3)nc2c(F)c(-c3cccc4cccc(Cl)c34)ncc12
0.1 to 0.5 | CN1CCC[C@H]1COc1nc(N(C)[C@@H]2CCN(C#N)C2)c2cnc(-c3cccc4ccc(F)c(Cl)c34)c(F)c2n1

IC50 [µM] | Structure (SMILES)
0.01 to 0.1 | CN(C)C/C=C/C(=O)N1CC(CN(C)c2nc(OCC34CCCN3CCC4)nc3c(F)c(-c4cccc5ccc(F)c(Cl)c45)ncc23)C1
0.01 to 0.1 | CN(C)C/C=C/S(=O)(=O)C1CCCN(c2nc(OCC34CCCN3CCC4)nc3c2CCN(c2cccc4cccc(Cl)c24)C3)C1 (centres unmarked)
> 0.5 | C=CC(=O)N1C[C@@H](N(C)c2nc(OC[C@@H]3CCCN3C)nc3c(F)c(-c4cccc5cccc(Cl)c45)ncc23)C[C@@H]1CC#N
0.1 to 0.5 | C=CC(=O)N1CC[C@@H](N(C)c2nc(OC[C@@]34CCCN3C[C@H](F)C4)nc3c2CCN(c2cc(O)cc4ccccc24)C3)C1
> 0.5 | C=CC(=O)N1CCC(N(c2nc(OCC34CCCN3CCC4)nc3c(F)c(-c4cccc5cccc(Cl)c45)ncc23)C2CC2)C1 (centres unmarked)
0.1 to 0.5 | C=CC(=O)N1CC(CN(C)c2nc(OC[C@]34CCCN3C[C@@H](F)C4)nc3c2CCN(c2cccc4cccc(Cl)c24)C3)C1
0.1 to 0.5 | C=CC(=O)N1CC(CN(C)c2nc(OC[C@]34CCCN3C[C@@H](F)C4)nc3c(F)c(-c4cccc5cccc(Cl)c45)ncc23)C1
0.1 to 0.5 | C=CC(=O)N1CC[C@@H](N(C)c2nc(OC[C@]34CCCN3C[C@@H](F)C4)nc3c(F)c(-c4cccc5cccc(Cl)c45)ncc23)C1
> 0.5 | C=CC(=O)N1CC[C@@H](N(C)c2nc(OC[C@]34CCCN3C[C@@H](F)C4)nc3c2CCN(c2cccc4cccc(Cl)c24)C3)C1
> 0.5 | Cc1noc(/C=C/C(=O)N2CCN(c3nc(OC[C@@]45CCCN4C[C@H](F)C5)nc4c3CCN(c3cccc5cccc(Cl)c35)C4)CC2)n1
> 0.5 | CC(C)c1noc(/C=C/C(=O)N2CCN(c3nc(OCC45CCCN4CCC5)nc4c3CCN(c3cccc5cccc(Cl)c35)C4)CC2)n1
> 0.5 | CC(C)c1noc(/C=C/C(=O)N2CCN(c3nc(OC[C@@]45CCCN4C[C@H](F)C5)nc4c3CCN(c3cccc5cccc(Cl)c35)C4)CC2)n1
> 0.5 | C=CC(=O)N1CC[C@@H](N(CC)c2nc(OC[C@@]34CCCN3C[C@H](F)C4)nc3c(F)c(-c4cccc5cccc(Cl)c45)ncc23)C1
> 0.5 | C=CC(=O)N1CCC(N(c2nc(OCC34CCCN3CCC4)nc3c2CCN(c2cccc4cccc(Cl)c24)C3)C2CC2)C1 (centres unmarked)
> 0.5 | C=CC(=O)N1CCC(N(c2nc(OC[C@@]34CCCN3C[C@H](F)C4)nc3c2CCN(c2cccc4cccc(Cl)c24)C3)C2CC2)C1 (some centres unmarked)
> 0.5 | C=CC(=O)N1CCC1CN(C)c1nc(OC[C@@]23CCCN2C[C@H](F)C3)nc2c(F)c(-c3cccc4cccc(Cl)c34)ncc12 (some centres unmarked)
> 0.5 | C=CC(=O)N1CC(CN(C)c2nc(OC[C@]34CCCN3C[C@H](F)C4)nc3c(F)c(-c4cccc5cccc(Cl)c45)ncc23)C1
0.1 to 0.5 | C=CC(=O)N1CC[C@@H](N(C)c2nc(OC[C@]34CCCN3C[C@H](F)C4)nc3c(F)c(-c4cccc5cccc(Cl)c45)ncc23)C1
0.01 to 0.1 | CN(C)C/C=C/S(=O)(=O)C1CCCN(c2nc(OCC34CCCN3CCC4)nc3c(F)c(-c4cccc5cccc(Cl)c45)ncc23)C1 (centres unmarked)
> 0.5 | C=CC(=O)N1C[C@@H](N(C)c2nc(OCC34CCCN3CCC4)nc3c2CCN(c2cccc4cccc(Cl)c24)C3)C[C@@H]1CC#N

Structure (SMILES) | IC50 [µM]
C=CC(=O)N1[C@H]2CC[C@@H]1[C@@H](N(C)c1nc(OC[C@@]34CCCN3C[C@H](F)C4)nc3c1CCN(c1cccc4cccc(Cl)c14)C3)C2 | > 0.5
